Measurements reported in ChEMBL document CHEMBL1201862, “PubChem BioAssay data set” (2004).
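96-well plates; 48 h exposure; 5 concentrations. Endpoints by linear interpolation between flanking doses. Not reached: highest tested concentration assigned. At the GI50, growth is halved.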 Activity calls are given as the source filed them. Cut-off read from the data, not from the text of the source: active = GI50 up to about 1.1 µM and inactive = higher.

Key:
Assay in all cases: growth of human tumour cells (NCI), 48 h
MDA-MB-435 = test system: MDA-MB-435
OVCAR-8 = test system: OVCAR-8
BT-549 = test system: BT-549
HCC 2998 = test system: HCC 2998
CAKI-1 = test system: CAKI-1
SK-OV-3 = test system: SK-OV-3
T47D = test system: T47D
SW-620 = test system: SW-620
PC-3 = test system: PC-3
SNB-75 = test system: SNB-75
RXF 393 = test system: RXF 393
ACHN = test system: ACHN
UACC-257 = test system: UACC-257
SN12C = test system: SN12C
SF-268 = test system: SF-268
HOP-62 = test system: HOP-62
786-0 = test system: 786-0
HOP-92 = test system: HOP-92
SK-MEL-2 = test system: SK-MEL-2
Hs-578T = test system: Hs-578T

Measured: GI50

COc1cc2c(c(O)c1OC)C(O)C1CCC(=O)N1C2c1ccc2c(c1)OCO2 (stereo unspecified)
inactive: MDA-MB-435 > 100 µM | OVCAR-8 > 100 µM | BT-549 > 100 µM | HCC 2998 > 100 µM | CAKI-1 > 100 µM | SK-OV-3 > 100 µM | T47D > 100 µM | SW-620 > 100 µM | PC-3 > 100 µM | SNB-75 81.3 µM | RXF 393 > 100 µM | ACHN > 100 µM | UACC-257 > 100 µM | SN12C > 100 µM | SF-268 > 100 µM | HOP-62 > 100 µM | 786-0 > 100 µM | HOP-92 > 100 µM

NS(=O)(=O)c1nnc(NS(=O)(=O)c2ccc(Cl)cc2)s1
inactive: MDA-MB-435 > 100 µM | OVCAR-8 > 100 µM | BT-549 > 100 µM | HCC 2998 > 100 µM | CAKI-1 > 100 µM | SK-OV-3 > 100 µM | T47D > 100 µM | SK-MEL-2 > 100 µM | SW-620 > 100 µM | Hs-578T > 100 µM | RXF 393 > 100 µM | ACHN > 100 µM | UACC-257 > 100 µM | SN12C > 100 µM | SF-268 > 100 µM | HOP-62 > 100 µM | 786-0 > 100 µM | HOP-92 > 100 µM

Clc1ccc(-c2cn3c(nc4ccccc43)c(/C=C/c3ccco3)n2)cc1
inactive: MDA-MB-435 23.2 µM | BT-549 51.4 µM | HCC 2998 22.2 µM | SK-OV-3 90.2 µM | T47D 22.9 µM | SK-MEL-2 18.1 µM | SW-620 36.8 µM | SNB-75 18.4 µM | Hs-578T 14.8 µM | RXF 393 33.7 µM | ACHN 37.9 µM | UACC-257 50.6 µM | SN12C 50 µM | SF-268 27.7 µM | HOP-62 42.5 µM | 786-0 30.3 µM | HOP-92 16.5 µM

COC1OC2COC1(OCc1ccccc1)C1OC(C)(C)OC21 (stereo unspecified)
inactive: MDA-MB-435 > 100 µM | OVCAR-8 > 100 µM | BT-549 > 100 µM | HCC 2998 > 100 µM | CAKI-1 > 100 µM | SK-OV-3 > 100 µM | T47D > 100 µM | SK-MEL-2 > 100 µM | SW-620 > 100 µM | PC-3 > 100 µM | SNB-75 > 100 µM | Hs-578T > 100 µM | RXF 393 > 100 µM | ACHN > 100 µM | UACC-257 > 100 µM | SN12C > 100 µM | SF-268 > 100 µM | HOP-62 > 100 µM | 786-0 > 100 µM

CCCCCCCCCCCCCOCCOCCOCCCCC(O)CCCCCCCCCC1=C[C@H](C)OC1=O (stereo partly specified)
inactive: MDA-MB-435 16.9 µM | OVCAR-8 18.7 µM | BT-549 11.1 µM | HCC 2998 17 µM | CAKI-1 19.1 µM | SK-OV-3 31.8 µM | T47D 16.3 µM | SK-MEL-2 23 µM | SW-620 16.4 µM | PC-3 13.8 µM | SNB-75 21.1 µM | Hs-578T 14.9 µM | RXF 393 20.1 µM | ACHN 28.6 µM | UACC-257 13.2 µM | SN12C 21.4 µM | SF-268 18.1 µM | HOP-62 30.8 µM | 786-0 17.6 µM

CCN(CC)CCCNc1nc2ccccc2[n+]([O-])n1
inactive: MDA-MB-435 > 100 µM | OVCAR-8 > 100 µM | BT-549 > 100 µM | HCC 2998 > 100 µM | CAKI-1 > 100 µM | T47D > 100 µM | SK-MEL-2 > 100 µM | SW-620 > 100 µM | PC-3 > 100 µM | SNB-75 64.1 µM | RXF 393 > 100 µM | ACHN > 100 µM | UACC-257 > 100 µM | SN12C > 100 µM | SF-268 > 100 µM | 786-0 > 100 µM | HOP-92 > 100 µM

O=C(/C=C/c1ccc(-c2ccccc2)cc1)NCc1ccc(C(=O)NCCc2ccccc2)cc1
inactive: MDA-MB-435 > 100 µM | OVCAR-8 36.2 µM | BT-549 > 100 µM | HCC 2998 > 100 µM | CAKI-1 > 100 µM | SK-OV-3 > 100 µM | T47D > 100 µM | SK-MEL-2 > 100 µM | SW-620 > 100 µM | PC-3 > 100 µM | SNB-75 49.3 µM | RXF 393 24.5 µM | ACHN > 100 µM | UACC-257 > 100 µM | SN12C > 100 µM | SF-268 > 100 µM | HOP-62 60.8 µM | 786-0 59.2 µM | HOP-92 54.6 µM

C=C1C(=O)OC2C3C(=C)[C@@H](OC(C)=O)CC3C(C)=CC(OC(=O)C(C)(O)C(C)OC(C)=O)[C@@H]12 (stereo partly specified)
inactive: MDA-MB-435 8.93 µM | OVCAR-8 20.1 µM | BT-549 13.6 µM | HCC 2998 16.1 µM | CAKI-1 2.9 µM | SK-OV-3 80.9 µM | T47D 19.5 µM | SK-MEL-2 4.98 µM | SW-620 2.88 µM | PC-3 16.3 µM | SNB-75 13.7 µM | Hs-578T 12.8 µM | RXF 393 3.61 µM | ACHN 10.4 µM | UACC-257 9.46 µM | SN12C 14.7 µM | SF-268 19.5 µM | HOP-62 21.3 µM | 786-0 11.5 µM
